Measured values as given in patent US12649980B2, “Three-dimensional surface for protein and small molecule microarrays” (The Johns Hopkins University, priority 2019, dated 2026).

Tests used:
FKBP12 = FKBP12 (Homo sapiens, UniProt P62942); test: peptidyl prolyl cis-trans isomerase activity inhibition, FKBP12; assay type: biochemical; conditions: inhibition of prolyl isomerase activity
MCF-7 = test: [3H]-2DG uptake assay in MCF-7 cells; assay type: cell-based, human
Method: Hay, Nat. Rev. […] To determine whether RgA could inhibit glucose uptake in cancer cell lines in addition to A549, the impact of RgA on [3H]-2DG uptake in six other cancer cell lines, including HCC1954, MCF-7, PANC10.05, Jurkat T, HeLa, and RKO was measured (FIG. 3A, Table 3).
The inhibitory activity of compounds on glucose transport was analyzed by measuring the cell uptake of [3H]-2DG as previously described. Ulanovskaya et al., Chem. Biol. 2011, 18, 222-230. Briefly, cells were washed twice and incubated in low-glucose medium for 10 min. Cells were added drugs and incubated for another 10 min before adding [3H]-2DG. After 10 min incubation with [3H]-2DG, cells were washed twice and lysed with 0.2 N NaOH plus 0.2% SDS. The cell lysate was transferred to a new tube containing 1 mL of optiphase supermix. Glucose uptake was quantified with a scintillation counter.

MCF-7 tumors = test: MCF-7 breast cancer xenograft in NSG mice; assay type: in vivo
Method: Given that RgA inhibited multiple isoforms of GLUTs, including GLUT1, 3, and 4, it raised the question of whether animals could tolerate RgA. As breast cancer cell lines are more sensitive to RgA than other cell lines (FIG. 6A and Table 3), the anti-breast cancer activity of RgA in vivo was assessed. Two breast cancer cell lines were selected for the xenograft experiment-MCF-7, an ER+, HER2− line, and HCC1954, an ER−, HER2+ breast line. NSG mice bearing MCF-7 tumors were given daily vehicle or RgA at a dose of 2 mg/kg for […].
All animal studies were conducted in compliance with all relevant ethical regulations set forth by the Johns Hopkins University Animal Care and Use Committee (ACUC). Female mice aged 4-6 weeks and weighing 18-22 g were maintained in a pathogen-free facility at Johns Hopkins Medical Institutions and cared for according to National Institutes of Health guidelines and under a protocol approved by the Johns Hopkins University Animal Care Committee. For the xenograft experiment of MCF-7, 17β-estradiol pellets (0.72 mg per pellet, 60-day release, Innovative Research of America, FL) were implanted at 5 days prior to tumor cell injection. Approximately 5 million MCF-7 cells were implanted subcutaneously into NSG mice (n=6 per group, NSG, The Jackson Laboratory). For the xenograft experiment of HCC1954, approximately 2 million cells were implanted subcutaneously into athymic nude mice (n=6 per group, NCr-nu/nu, Charles River). After tumors became palpable, the mice bearing MCF-7 and HCC1954 tumors were treated with either vehicle (saline with 5% PEG400, 5% Tween80 and 5% DMSO) or RgA via intraperitoneal injection every day. The tumor volume was measured periodically using a Vernier caliper and calculated according to the modified ellipsoid formula: tumor volume (mm^3)=(short axis)^2×(long axis)×π/6. After 30 days of treatment, the mice were killed, and the tumor tissues were extracted and stored in 10% formalin solution for future use.

GLUT1 = molecular target: T1, GLUT1 (Homo sapiens, UniProt P11166); test: rapafucin 2D microarray screen with GLUT1-containing cell lysate; assay type: binding; conditions: signal-to-background ratio, 2D surface, same lysate and conditions
T1 construct: The full-length human SLC2A1, SLC2A3, and SLC2A4 genes were PCR amplified and inserted into pLenti6M vector 2; expressed in transfected cells
T1 sequence (P11166 1-492): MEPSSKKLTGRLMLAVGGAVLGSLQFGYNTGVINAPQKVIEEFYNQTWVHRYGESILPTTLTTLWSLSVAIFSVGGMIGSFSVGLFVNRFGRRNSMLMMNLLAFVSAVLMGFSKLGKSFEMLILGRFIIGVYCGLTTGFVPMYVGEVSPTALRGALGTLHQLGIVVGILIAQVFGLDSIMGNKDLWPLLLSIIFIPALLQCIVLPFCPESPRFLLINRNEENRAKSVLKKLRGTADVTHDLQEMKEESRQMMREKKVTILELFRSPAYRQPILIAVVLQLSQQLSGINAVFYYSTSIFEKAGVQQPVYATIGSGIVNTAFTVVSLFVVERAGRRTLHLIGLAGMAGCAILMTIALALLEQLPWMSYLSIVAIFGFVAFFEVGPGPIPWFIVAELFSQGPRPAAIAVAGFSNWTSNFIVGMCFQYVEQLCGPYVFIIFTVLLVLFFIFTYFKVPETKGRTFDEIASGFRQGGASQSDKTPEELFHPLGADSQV
Text: Once stock solutions of the rapafucin library were arrayed on the 2D or 3D surface and most of solvent carrier was evaporated, the crosslinking reaction was initiated by irradiating the surfaces with 365-nm wavelength UV light. Kawatani and Osada, Medchemcomm 2014, 5, 277-287. […] To screen for GLUT1-interacting rapafucins, GLUT1 was stably overexpressed in HEK293T cells and generated cell lysates containing detergent-solubilized recombinant GLUT1 (FIG. 10). The GLUT1-containing cell lysate was then incubated on both 2D and 3D rapafucin microarrays. After washing the slides to remove unbound proteins, the bound GLUT1 protein was detected with anti-GLUT1 antibodies, followed by visualization with Cy5-labeled secondary antibodies using a microarray scanner. Rapafucins were scored as positive hits when the corresponding SBR was greater than 3. Based on this criterion, a total of 17 rapafucin hits and one positive control BAY-876, a specific GLUT1 inhibitor, Siebeneicher et al., ChemMedChem 2016, 11, 2261-2271, were identified on the 3D rapafucin microarray. In contrast, only one hit (WL13-F11, also among the 17 hits identified from the 3D rapafucin microarray) was identified on the 2D rapafucin microarray (Table 1, FIG. 11).
In the optimization experiments, the slides were incubated with 50 nM purified recombinant FKBP12 for 1 hour, while in the GLUT1 screening, 10 mg/mL of cell lysate containing DDM-solubilized GLUT1 from GLUT1 overexpressed HEK293T was incubated for 1 hour. Successively, primary antibody and CY5 labeled secondary antibody were added for 1 hour. The chips were washed in buffer A for 5 mins 3 times after the sample and antibodies incubation. After centrifugation, the dried chips were scanned by a microarray scanner (Genepix, US) at 635-nm wavelength. The final result was analyzed by GenePix software.

FKBP12, sequence (P62942 whole entry, species assumed): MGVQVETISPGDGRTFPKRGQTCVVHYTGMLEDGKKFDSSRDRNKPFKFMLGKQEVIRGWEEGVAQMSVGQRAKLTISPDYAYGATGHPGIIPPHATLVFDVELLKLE

**Q.** With `CCC(C)C1C(=O)NCC(=O)N(C)CCC=CC(=O)OCC(C)(C)C(=O)C(=O)N2CCCCC2C(=O)OC(CCc2ccc(OC)c(OC)c2)c2cccc(c2)NC(=O)CCC(=O)N(C)C(CC(C)C)C(=O)NC(Cc2ccccc2)C(=O)N1C` (stereo not shown) [JW11-D2, Rapaglutin A] as the molecule, how does the Ki (FKBP12) read?
**A.** 1.5 nM

**Q.** What about the IC50 (MCF-7; MCF-7) of the same molecule?
**A.** 3.3 nM

**Q.** What about the “effect of high concentration of FK506 and rapamycin on the inhibitory activity of RgA” value (MCF-7; MCF-7, 100 nM RgA, 20 μM FK506, 20 μM Rapamycin) of the same molecule?
**A.** negligible effect

**Q.** And the tumor weight (MCF-7 tumors; MCF-7 in NSG mice, 2 mg/kg daily, vehicle 454 mg)?
**A.** 285 mg

**Q.** And the “tumor volume index on day 38” value (MCF-7 tumors; MCF-7 in NSG mice, 2 mg/kg intraperitoneally daily, vehicle 2.84)?
**A.** 1.70

**Q.** And the “weight loss and signs of adverse effects” value (MCF-7 tumors; MCF-7 xenograft mice, 2 mg/kg daily)?
**A.** no significant weight loss or any signs of adverse effects

**Q.** What about the “2D SBR” value (GLUT1) of the same molecule?
**A.** <3.0
